Source: ChEMBL document CHEMBL1159189, “Pyrazolo[3,4-d]pyrimidines; adenosine receptor selectivity” (Bioorg Med Chem Lett, 1995)

Experiments:
[1] = target: T1, Adenosine receptor A2a (Rattus norvegicus, UniProt P30543); experiment: Inhibitory activity against Adenosine A2a receptor binding site
[2] = target: T1, Adenosine receptor A2a; experiment: Binding affinity towards Adenosine A2a receptor by inhibition of [3H]CGS-21680 binding to rat brain striatum membranes; assay type: cell membranes, Membrane
[3] = target: T2, Adenosine receptor A1 (Rattus norvegicus, UniProt P25099); experiment: Binding affinity for Adenosine A1 receptor by inhibition of [3H]PIA binding to whole rat brain membranes; assay type: cell membranes, Membrane
T2 sequence (P25099 whole entry): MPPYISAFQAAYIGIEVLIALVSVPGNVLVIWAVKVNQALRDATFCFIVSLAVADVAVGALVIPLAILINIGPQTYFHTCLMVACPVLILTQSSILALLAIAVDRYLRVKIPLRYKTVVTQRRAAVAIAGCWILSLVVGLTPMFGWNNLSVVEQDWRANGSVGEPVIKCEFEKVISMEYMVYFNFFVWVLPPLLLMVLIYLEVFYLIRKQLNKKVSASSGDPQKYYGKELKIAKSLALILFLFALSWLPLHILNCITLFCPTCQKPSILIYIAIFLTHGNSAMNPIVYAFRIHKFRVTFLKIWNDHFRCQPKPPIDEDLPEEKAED

[4] = target: Adenosine receptors; A1 & A2a (Rattus norvegicus) (UniProt P25099+P30543); experiment: Ratio of binding affinities for adenosine receptor A2a and adenosine receptor A1; assay type: protein assay
Sequence of Adenosine receptors; A1 & A2a (Rattus norvegicus) (P30543 whole entry, looked up, one chain of several): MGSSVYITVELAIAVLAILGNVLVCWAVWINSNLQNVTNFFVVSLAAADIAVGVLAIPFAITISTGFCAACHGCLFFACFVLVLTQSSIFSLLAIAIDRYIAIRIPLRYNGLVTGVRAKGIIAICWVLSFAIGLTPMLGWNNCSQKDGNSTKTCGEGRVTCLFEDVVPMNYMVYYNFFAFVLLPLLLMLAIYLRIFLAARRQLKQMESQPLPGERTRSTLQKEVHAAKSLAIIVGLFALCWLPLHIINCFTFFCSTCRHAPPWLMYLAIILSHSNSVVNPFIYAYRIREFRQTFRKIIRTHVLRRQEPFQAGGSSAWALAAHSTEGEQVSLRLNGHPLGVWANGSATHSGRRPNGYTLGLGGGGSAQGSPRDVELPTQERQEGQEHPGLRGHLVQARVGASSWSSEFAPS

T1 sequence (P30543 whole entry): as the sequence (P30543 whole entry, looked up, one chain of several) above

SMILES	IC50 [1] [nM]	Ki [2] [nM]	Ki [3] [nM]	Ratio [4]
CCCCn1c(=O)[nH]c2c(cnn2-c2cccc(Cl)c2)c1=N	19200	–	–	–
CC(Sc1nc(SC(C)C(N)=O)c2cnn(-c3ccccc3)c2n1)C(N)=O (stereo not given)	–	146	229	–
NC(=O)CSc1nc(N)c2cnn(-c3ccccc3)c2n1	–	44.9	28.5	1.6
CCNC(=O)CCSc1nc(N)c2cnn(-c3ccccc3)c2n1	–	1280	551	2.3
NC(=O)CCSc1nc(N)c2cnn(-c3ccccc3)c2n1	–	101	428	0.24
CCNC(=O)CSc1nc(N)c2cnn(-c3ccccc3)c2n1	–	131	12.1	10.8
